# Source: ChEMBL document CHEMBL4130367, “Click chemistry-based synthesis and anticancer activity evaluation of novel C-14 1,2,3-triazole dehydroabietic acid hybrids” (Eur J Med Chem, 2017)
# Active and inactive are the calls of the source. The rule behind the calls is not given here.
# Columns and labels:
# A549 [1] = test: Effect on microtubule formation in human A549 cells assessed as morphological changes at 1 to 10 umol after 18 hrs; type: cell-based
# [2] = Metabolic stability in rat liver microsomes assessed as parent compound remaining after 180 mins in presence of NADPH by HPLC analysis; type: ADME, microsome; conditions: read-out: Stability
# [3] = Selectivity index, ratio of IC50 for HFF cells to IC50 for human HCT116 cells; type: toxicity; conditions: HFF cells versus HCT116 cells, read-out: Ratio IC50
# NCI/ADR-RES = test: Growth inhibition of human MCF7/ADR cells after 72 hrs by MTT assay; type: functional, cell-based
# [4] = Metabolic stability in dog liver microsomes assessed as parent compound remaining after 90 mins in presence of NADPH by HPLC analysis; type: ADME, Canis lupus familiaris, microsome; conditions: read-out: Stability
# [5] = Octanol-water partition coefficient, log P of the compound; type: physicochemical
# [6] = Metabolic stability in mouse liver microsomes assessed as parent compound remaining after 30 mins in presence of NADPH by HPLC analysis; type: ADME, microsome; conditions: read-out: Stability
# HFF = test: Cytotoxicity against HFF cells assessed as reduction in cell viability after 72 hrs by MTT assay; type: cell-based; conditions: Homo sapiens
# [7] = Half life in rat liver microsomes in presence of NADPH by HPLC analysis; type: ADME, microsome
# [8] = Selectivity index, ratio of IC50 for HFF cells to IC50 for human LNCAP cells; type: toxicity; conditions: HFF cells versus LNCAP cells, read-out: Ratio IC50
# A549 [9] = test: Induction of apoptosis in human A549 cells assessed as genomic DNA fragmentation at 2.5 uM after 24 hrs by DAPI/TUNEL staining based spectrofluorometric method; type: functional, cell-based
# MDA-MB-231 [10] = test: Induction of apoptosis in human MDA-MB-231 cells assessed as dead cells at 1 uM after 24 hrs by Annexin V-FITC/propidium iodide staining based flow cytometry (reference value: 2.15%); type: functional
# MDA-MB-231 [11] = test: Induction of apoptosis in human MDA-MB-231 cells assessed as downregulation of Bcl2 protein expression after 48 hrs by Western blot analysis; type: functional, cell-based
# LNCaP = test: Cytotoxicity against human LNCAP cells assessed as reduction in cell viability after 72 hrs by MTT assay; type: functional, cell-based
# [12] = Cytotoxicity against human […] cells assessed as reduction in cell viability after 72 hrs by MTT assay; type: functional, cell-based
# SK-BR-3 = test: Cytotoxicity against human SKBR3 cells assessed as reduction in cell viability after 72 hrs by MTT assay; type: functional, cell-based; conditions: SK-BR-3, 72 h
# [13] = Metabolic stability in mouse liver microsomes assessed as parent compound remaining after 180 mins in presence of NADPH by HPLC analysis; type: ADME, microsome; conditions: read-out: Stability
# PC-3 = test: Cytotoxicity against human PC3 cells assessed as reduction in cell viability after 72 hrs by MTT assay; type: functional, cell-based; conditions: PC-3, 72 h
smiles,measurement,setting,value
COC(=O)[C@]1(C)CCC[C@]2(C)c3ccc(C(C)C)c(NC(=O)Cn4cc(-c5cccc(NC(=O)OC(C)(C)C)c5)nn4)c3CC[C@@H]12,Activity,A549 [1],inactive
same,remaining at 3 h,[2],31%
same,selectivity ratio,[3],5.4
same,IC50,NCI/ADR-RES,900 nM
same,growth inhibition (GI),NCI/ADR-RES,Dose-dependent effect
same,remaining at 1.5 h,[4],31.6%
same,logP,[5],6.07
same,remaining at 0.5 h,[6],87.9%
same,IC50,HFF,5400 nM
same,half-life,[7],2.19 h
same,selectivity ratio,[8],8.6
same,Activity,A549 [9],Active
same,Activity,MDA-MB-231 [10],7.01%
same,Activity,MDA-MB-231 [11],Active
same,IC50,LNCaP,600 nM
same,IC50,[12],1100 nM
same,IC50,SK-BR-3,900 nM
same,remaining at 3 h,[13],11.1%
same,IC50,PC-3,900 nM
